From the supplement of paper PMC10331698
± gives the standard deviation of the averaged measurements.

Columns and labels:
Assay in all cases: level (log10 ratio to DMSO vehicle control); higher = higher biomarker level / cell amount than vehicle control
[1] = compound: C=C(C)C(=O)OCC(F)(F)C(F)(F)C(F)(F)F [2,2,3,3,4,4,4-Heptafluorobutyl methacrylate]; conditions: in DMSO
Protocol: (§1)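 BioMAP Diversity Plus panel of 12 human primary cell co-culture systems (3C, 4H, LPS, SAg, BT, BF4T, BE3C, CASM3C, HDF3CGF, KF3CT, MyoF, Mphg). Compounds were added 1 h before stimulation and left for 24 h (MyoF 48 h; BT 72 h for soluble read-outs or 6 d for IgG). Biomarkers were read by ELISA, cytotoxicity by SRB, PBMC viability and proliferation by Alamar Blue. Each well value was divided by the mean of 8 DMSO control wells on the same plate and log10 transformed; duplicate blinded samples were tested at 4 concentrations.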

[2] = compound: C=CC(=O)OCC(F)(F)C(F)(F)C(F)(F)C(F)(F)C(F)(F)C(F)(F)C(F)(F)C(F)F [1H,1H,9H-Perfluorononyl acrylate]; conditions: in DMSO
Protocol: as §1

[3] = compound: FC(F)(F)C(F)(F)C(F)(F)C(F)(F)CCI [1H,1H,2H,2H-Perfluorohexyl iodide]; conditions: in DMSO
Protocol: as §1

[4] = compound: O=C(Cl)C(F)(F)C(F)(F)C(F)(F)C(=O)Cl [Hexafluoroglutaryl chloride]; conditions: in DMSO
Protocol: as §1

[5] = compound: O=C(O)C(F)(F)C(F)(F)C(F)(F)C(F)(F)C(F)(F)C(F)(F)C(F)(F)F [Ammonium perfluorooctanoate]; conditions: in DMSO
Protocol: as §1

[6] = compound: OCC(F)(F)C(F)(F)C(F)(F)C(F)(F)C(F)(F)C(F)(F)C(F)(F)C(F)(F)CO [1H,1H,10H,10H-Perfluorodecane-1,10-diol]; conditions: in DMSO
Protocol: as §1

[7] = compound: OCCCC(F)(F)C(F)(F)C(F)(F)C(F)(F)C(F)(F)C(F)(F)C(F)(F)C(F)(F)F [3-(Perfluorooctyl)propanol]; conditions: 6700 nM; in DMSO
Protocol: as §1

Test System | level (log10) ([1]; 6700 nM) | level (log10) ([1]; 20000 nM) | level (log10) ([1]; 60000 nM) | level (log10) ([2]; 6700 nM) | level (log10) ([2]; 20000 nM) | level (log10) ([2]; 60000 nM) | level (log10) ([3]; 6700 nM) | level (log10) ([3]; 20000 nM) | level (log10) ([3]; 60000 nM) | level (log10) ([4]; 6700 nM) | level (log10) ([4]; 20000 nM) | level (log10) ([4]; 60000 nM) | level (log10) ([5]; 6700 nM) | level (log10) ([5]; 20000 nM) | level (log10) ([5]; 60000 nM) | level (log10) ([6]; 6700 nM) | level (log10) ([6]; 20000 nM) | level (log10) ([6]; 60000 nM) | level (log10) [7]
BF4T:CXCL8/IL-8 | 0.044 ± 0.047 | 0.0155 ± 0.073 | 0.037 ± 0.037 | -0.0025 ± 0.061 | 0.0315 ± 0.053 | 0.0175 ± 0.012 | 0.0135 ± 0.025 | 0.0195 ± 0.00071 | 0.0355 ± 0.03 | 0.045 ± 0.086 | 0.037 ± 0.072 | 0.048 ± 0.089 | 0.0135 ± 0.047 | 0.043 ± 0.058 | 0.04 ± 0.088 | 0.0005 ± 0.0064 | 0.0095 ± 0.00071 | 0.004 | 0.006 ± 0.023
BF4T:IL-1alpha | -0.005 ± 0.014 | -0.009 ± 0.0014 | 0.002 ± 0.025 | 0.007 ± 0.0071 | 0.017 ± 0.014 | 0.005 ± 0.013 | 0.001 ± 0.0071 | 0.0085 ± 0.0092 | 0.019 ± 0.024 | -0.014 ± 0.04 | -0.015 ± 0.018 | 0.0015 ± 0.0064 | -0.02 ± 0.014 | -0.0235 ± 0.0035 | -0.0365 ± 0.015 | 0.0005 ± 0.0021 | -0.025 ± 0.023 | -0.035 | -0.012 ± 0.0014
BF4T:Keratin 8/18 | -0.013 ± 0.035 | -0.029 ± 0.014 | -0.0245 ± 0.039 | -0.022 ± 0.013 | -0.007 ± 0.013 | -0.0385 ± 0.037 | 0.0015 ± 0.022 | -0.0045 ± 0.005 | 0.003 ± 0.033 | -0.0245 ± 0.053 | -0.018 ± 0.03 | -0.0345 ± 0.035 | 0.009 ± 0.028 | 0.013 ± 0.0057 | 0.017 ± 0.014 | 0.005 ± 0.028 | 0.027 ± 0.018 | -0.024 | 0.021 ± 0.051
BF4T:MMP-1 | 0.009 ± 0.018 | -0.001 ± 0.013 | 0.009 ± 0.0057 | -0.0185 ± 0.0021 | -0.0005 ± 0.005 | 0.001 ± 0.0057 | 0.007 ± 0.024 | 0.0105 ± 0.029 | 0.015 ± 0.051 | -0.0125 ± 0.018 | 0.003 ± 0.0028 | 0 ± 0.017 | -0.0025 ± 0.016 | -0.004 ± 0.014 | 0.0105 ± 0.012 | -0.003 ± 0.011 | -0.0505 ± 0.011 | -0.007 | 0.022 ± 0.0099
BF4T:MMP-3 | -0.009 ± 0.03 | -0.011 ± 0.0085 | 0.006 ± 0.0085 | 0.013 ± 0.013 | -0.003 ± 0.045 | 0.021 ± 0.0085 | 0.018 ± 0.04 | 0.015 ± 0.047 | 0.049 ± 0.078 | -0.004 ± 0.011 | -0.0145 ± 0.0064 | 0.019 ± 0.0057 | 0.003 ± 0.0014 | 0.0165 ± 0.011 | 0.084 ± 0.02 | 0.0015 ± 0.021 | -0.0375 ± 0.026 | -0.105 | 0.018 ± 0.03
BF4T:MMP-9 | -0.015 ± 0.025 | -0.0265 ± 0.0078 | 0.0195 ± 0.049 | 0.0145 ± 0.019 | 0.0235 ± 0.019 | 0.031 ± 0.0014 | 0.0085 ± 0.022 | 0.01 ± 0.047 | 0.02 ± 0.052 | -0.0075 ± 0.025 | -0.0125 ± 0.025 | 0.005 ± 0.0071 | 0.017 ± 0.023 | 0.028 ± 0.0057 | 0.0375 ± 0.025 | -0.0185 ± 0.015 | -0.063 ± 0.0028 | -0.135 | 0.0155 ± 0.057
BF4T:PAI-I | -0.0035 ± 0.00071 | 0.0015 ± 0.0064 | 0.007 | 0.007 ± 0.0057 | 0.003 ± 0.0085 | 0.0005 ± 0.012 | 0.0075 ± 0.0078 | 0.008 ± 0.018 | 0.01 ± 0.038 | -0.01 ± 0.014 | -0.002 ± 0.0042 | -0.0005 ± 0.005 | 0.011 ± 0.0085 | 0.0055 ± 0.0021 | 0.0185 ± 0.016 | -0.021 ± 0.021 | -0.111 ± 0.0021 | -0.156 | -0.016 ± 0.024
BF4T:SRB | -0.003 ± 0.0042 | -0.011 ± 0.0071 | 0.0315 ± 0.039 | -0.0045 ± 0.005 | -0.001 ± 0.016 | 0.0065 ± 0.021 | -0.009 ± 0.0028 | -0.0055 ± 0.005 | -0.0035 ± 0.0078 | -0.015 ± 0.0099 | -0.0115 ± 0.0035 | -0.0195 ± 0.0035 | -0.0085 ± 0.005 | -0.002 ± 0.0042 | 0.0005 ± 0.016 | -0.005 ± 0.0028 | -0.0315 ± 0.0035 | -0.097 | -0.0075 ± 0.0021
BF4T:tPA | -0.0165 ± 0.032 | 0.0025 ± 0.00071 | 0.012 ± 0.023 | -0.0135 ± 0.028 | -0.006 ± 0.011 | -0.0395 ± 0.026 | -0.0025 ± 0.0092 | 0.005 ± 0.0042 | 0.0475 ± 0.053 | 0.0095 ± 0.0078 | -0.019 ± 0.0099 | -0.0095 ± 0.019 | -0.0185 ± 0.0064 | -0.041 ± 0.018 | -0.0565 ± 0.0021 | -0.061 ± 0.016 | -0.164 ± 0.013 | -0.246 | 0.056 ± 0.016
BF4T:uPA | -0.01 | -0.017 ± 0.017 | -0.007 ± 0.0085 | -0.0055 ± 0.023 | -0.0075 ± 0.018 | -0.002 ± 0.018 | -0.0205 ± 0.0021 | -0.0145 ± 0.013 | 0.0115 ± 0.035 | -0.02 ± 0.048 | -0.004 ± 0.028 | -0.008 ± 0.013 | 0.014 ± 0.0028 | 0.0175 ± 0.0021 | 0.042 ± 0.013 | -0.014 ± 0.017 | -0.029 ± 0.0042 | -0.06 | 0.006 ± 0.0085
BT:B cell Proliferation | -0.0305 ± 0.076 | -0.02 ± 0.086 | -0.058 ± 0.011 | -0.034 ± 0.0042 | -0.0415 ± 0.0035 | -0.253 ± 0.15 | -0.0105 ± 0.00071 | -0.0085 ± 0.016 | -0.0005 ± 0.032 | 0.01 | -0.024 ± 0.0057 | -0.0095 ± 0.026 | 0.0065 ± 0.047 | 0.0165 ± 0.012 | 0.0515 ± 0.026 | 0.0155 ± 0.00071 | 0.0195 ± 0.0078 | -0.316 | -0.0025 ± 0.0064
BT:PBMC Cytotoxicity | 0.0065 ± 0.035 | 0.005 ± 0.03 | 0.004 ± 0.055 | -0.047 ± 0.0085 | -0.1 ± 0.0085 | -0.287 ± 0.1 | -0.024 ± 0.0014 | -0.042 ± 0.0099 | -0.0045 ± 0.029 | -0.0035 ± 0.039 | -0.019 ± 0.04 | -0.022 ± 0.016 | -0.0115 ± 0.047 | -0.009 ± 0.033 | 0.0565 ± 0.015 | 0.0065 ± 0.026 | -0.012 ± 0.0085 | -0.246 | 0.021 ± 0.028
BT:Secreted IgG | 0.0145 ± 0.036 | 0.029 ± 0.018 | 0.024 ± 0.03 | -0.011 ± 0.027 | -0.0185 ± 0.039 | -0.412 ± 0.43 | -0.012 ± 0.016 | -0.016 ± 0.0071 | -0.002 ± 0.014 | 0.012 ± 0.024 | 0.0205 ± 0.012 | 0.0115 ± 0.0035 | 0.032 ± 0.017 | 0.0155 ± 0.037 | -0.019 ± 0.033 | -0.0135 ± 0.005 | -0.0415 ± 0.011 | -0.82 | 0.009 ± 0.016
BT:sIL-2 | 0.0115 ± 0.035 | 0.026 ± 0.082 | -0.0115 ± 0.042 | 0.118 ± 0.042 | -0.0285 ± 0.11 | -0.514 ± 0.61 | 0.0565 ± 0.029 | -0.0065 ± 0.0021 | -0.056 ± 0.057 | -0.0205 ± 0.07 | -0.001 ± 0.1 | 0.0415 ± 0.066 | -0.046 ± 0.0057 | -0.0075 ± 0.074 | -0.006 ± 0.1 | 0.002 ± 0.035 | 0.0135 ± 0.005 | -0.482 | -0.0245 ± 0.016
BT:sIL-6 | 0.035 ± 0.0085 | -0.0015 ± 0.028 | -0.015 ± 0.041 | -0.073 ± 0.018 | -0.269 ± 0.07 | -0.693 ± 0.5 | 0.0605 ± 0.036 | 0.0075 ± 0.0064 | -0.0525 ± 0.00071 | -0.0085 ± 0.042 | 0.008 ± 0.055 | -0.033 ± 0.023 | -0.0485 ± 0.0021 | -0.0025 ± 0.037 | -0.034 ± 0.085 | -0.0075 ± 0.011 | -0.0405 ± 0.032 | -0.673 | 0.0875 ± 0.052
